Assay results reported in patent publication US20250127821A1, “PHARMACEUTICAL COMPOSITION AND COSMETIC COMPOSITION” (I Peace, Inc., priority 2023, published 2025).

Experiments:
Type in all cases: cell-based
[1] = test system: adipocytes differentiated from normal human subcutaneous preadipocytes; assay: Fat-decomposing assay (free glycerol in culture supernatant); conditions: positive control 10 μM, 24 hours
Protocol: Normal human subcutaneous preadipocytes (Lonza, PT-5020) were seeded into a T-75 flask using a proliferation medium (PGM-2, 10% FBS, 2 mM L-glutamine, 50 μg/mL gentamicin, and 37 ng/mL amphotericin B-supplemented PBM, Lonza, PT-8002) and cultured in a CO2 incubator (37° C., 5% CO2, humidified) until they reached 60% to 80% confluence. The cells were then detached using 0.25% trypsin-EDTA and centrifuged. Subsequently, the cells were seeded into a 96-well plate at 10,000 cells/100 μL/well in proliferation medium and incubated in a CO2 incubator. The following day, the medium was replaced with 100 μL of differentiation medium (PGM-2 supplemented with insulin, dexamethasone, indomethacin, and isobutyl-methylxanthine; Lonza, PT-8002), and the cells were cultured for seven days to induce differentiation of preadipocytes into adipocytes. […] Thereafter, the culture supernatant was collected, and the amount of free glycerol in the supernatant was measured using a fat-decomposing assay kit (Cayman, 10009381). […] Specifically, a multi-spectral microplate reader (Varioskan Flash, Thermo Fisher Scientific) was used to measure the absorbance of the supernatant at a wavelength of 540 nm, and the relative concentration of free glycerol was calculated. […]

[2] = test system: normal human skeletal muscle myoblasts; assay: Myotube differentiation promotion test (anti-MHC staining, differentiation index); conditions: positive control 50 nmol/L, 3 days
Protocol: Using proliferation medium (SkGM-2, Lonza, CC-3245), normal human skeletal muscle myoblasts (Lonza, CC-2580) were seeded into a T-75 flask and cultured in a CO2 incubator until approximately 60% confluence. The cells were then detached from the T-75 flask using 0.05% trypsin-EDTA and phenol red. The detached cells were seeded into a 96-well plate at 7,500 cells/100 μL/well in proliferation medium and cultured in a CO2 incubator.
The next day, the medium was replaced with 100 μL of differentiation medium (2% horse serum-supplemented DMEM: F12) containing test substances 1 through 7 at final concentrations of 5% and 20% and the positive control substance at a final concentration of 50 nmol/L, or differentiation medium without test or positive control substances. The cells were then cultured for 3 days in a CO2 incubator to induce differentiation of myoblasts into myotubes.
Subsequently, the medium was removed from the wells, and 100 μL of 4% paraformaldehyde at 4° C. was added to each well, followed by incubation at 4° C. for 15 minutes to fix the cells. […]
From the captured images, the number of cell nuclei and the number of nuclei positive for myosin heavy chain were measured, and the differentiation index I (%) was calculated according to formula (1) below. […]

[3] = test system: normal human umbilical vein endothelial cells; assay: Prostacyclin production test (6-keto prostaglandin Fla ELISA); conditions: positive control 10 μM, 24 hours
Protocol: Normal human umbilical vein endothelial cells (Lonza, CC2519AS) were seeded into a T-75 flask using medium (EGM-2, Lonza, CC-3162) and cultured in a CO2 incubator until 60% to 80% confluence. The cells were then detached from the T-75 flask using 0.05% trypsin-EDTA and phenol red. The detached cells were seeded into a 96-well plate at 10,000 cells/100 μL/well in medium and cultured in a CO2 incubator. The next day, the medium was replaced with 100 μL of medium containing test substances 1 through 7 at final concentrations of 5% and 20%, and the positive control substance at a final concentration of 10 μM, or medium without test or positive control substances. The cells were then cultured for 24 hours in a CO2 incubator. The culture supernatant was collected, and the amount of 6-keto prostaglandin Fla, a metabolite of prostacyclin, was measured using an ELISA kit (Abcam, ab133023) and a multi-spectral microplate reader (Varioskan Flash, Thermo Fisher Scientific).

[4] = test system: human chondrocyte cell line (SW1353); assay: Hyaluronic acid production test (ELISA); conditions: positive control 10 mmol/L
Protocol: Using proliferation medium (DMEM/F-12 supplemented with 10% FBS and 1% penicillin-streptomycin mixture), a human chondrocyte cell line (SW1353, ATCC, HTB-94) was seeded into a T-75 flask and cultured in a CO2 incubator until 60-80% confluency. The cells were then detached from the T-75 flask using 0.25% trypsin-EDTA and phenol red. Subsequently, using the proliferation medium, the human chondrocytes were seeded into a 96-well plate at a density of 10,000 cells/100 μL/well and cultured in a CO2 incubator.
The following day, the medium was replaced with 100 μL of assay medium (DMEM/F-12 supplemented with 1% FBS and 1% penicillin-streptomycin mixture), containing each of test substances 1 through 7 at final concentrations of 5% and 20% or a positive control substance at a final concentration of 10 mmol/L, or assay medium without test substances or positive control. The human chondrocytes were cultured in a CO2 incubator for 24 or 72 hours.
The culture supernatant was collected, and the amount of hyaluronic acid was measured using an ELISA kit (Hyaluronan Quantikine ELISA Kit, R&D Systems) and a multi-spectral microplate reader (Varioskan Flash, Thermo Fisher Scientific).

**Q.** For `CC(C)NCC(O)c1ccc(O)c(O)c1` (centres unmarked) [isoproterenol], which “amount of fat-decomposition (free glycerol) compared to the control” value [1] is on record?
**A.** Its value is “significantly higher”.

**Q.** Which “differentiation index to myotubes compared to the control” value [2] does the source give for insulin here?
**A.** Its value is “significantly higher”.

**Q.** `CCCCC/C=C\C/C=C\C/C=C\C/C=C\CCCC(=O)O` [arachidonic acid] was tested. Which “levels of 6-keto prostaglandin Fla compared to the control” value [3] did it give?
**A.** Its value is “significantly higher”.

**Q.** Which results are given for `CC(=O)N[C@H]1C(O)O[C@H](CO)[C@@H](O)[C@@H]1O` (some centres unmarked) [N-acetylglucosamine]?
**A.** hyaluronic acid production compared to the control ([4]; cultured 24 hours): significantly higher; hyaluronic acid production compared to the control ([4]; cultured 72 hours): significantly higher
